What was measured:
Type in all cases: cell-based, human
[1] = system: GP IIb/IIIa; experiment: Flow cytometry of platelet antigen expression, platelet rich plasma; conditions: for GP IIb/IIIa (mean) log fluorescence intensity / GP IIb/IIIa (peak) log fluorescence intensity: PRP
Description: (§1) For ex vivo assessment of the SSRIs effect on a PAM, a level of a PAM can be assessed by flow cytometry by first obtaining a sample that comprises platelets and then contacting the sample with a platelet activation agonist, such as phorbol myristate acetate (PMA), ADP (adenosine diphosphate), thrombin, collagen, and/or TRAP (thrombin receptor activating peptide), under conditions suitable for activation of platelets in the sample. The sample is in contact with the agonist preferably for a period of time effective to maximally activate the platelets. […] NDMS at 31.1, 64.1 or 143 ng./ml). Then one contacts or stains the samples with a composition that comprises an anti-PAM antibody e.g., having a fluorescent label, preferably in an amount in excess of that required to bind the PAM expressed on the platelets, under conditions suitable for the formation of labeled complexes between the anti-PAM antibody and activated platelets. Then the formation of the complex in the sample is determined (detected or measured). […] The blood-ACD mixture was centrifuged at 1000 r.p.m. for 10 minutes at room temperature. […] The PRP was then centrifuged at 3000 r.p.m. for 10 minutes. […] All cells were then divided into ten plastic capped tubes. Nine portions of washed platelets were incubated with 5 μfluorescein isothiocyanate (FITC)-conjugated antibodies in the dark at +4 °C for 30 minutes, and one part remained unstained and served as a negative control. Surface antigen expression was measured with monoclonal murine anti-human antibodies: CD9 (p24); CD41a (IIb/IIIa, aIIIbb3); CD42b (Ib); CD61(IIIa) (DAKO Corporation, Carpinteria Calif.); CD49b (VLA-2, or a2b1); CD62p (P-selectin); CD31 (PECAM-1); […] The instrument was calibrated daily with fluorescence beads (CaliBRITE; Becton Dickinson) and measured FITC-conjugated fluorescence intensity. All parameters were obtained using four decade logarithmic amplification. The data was collected and stored in list mode, and then analyzed using CELLQuest® (version 1.2.2) software. Procedures are described in detail in (Gurbel, P. […] Serebruany, V. […] Gurbel, P. A. et al., Coron Artery Dis 9: 451-456 (1998) and Serebruany, V. L. et al., Arterioscl Thromb Vasc Biol 19: 153-158 (1999)). The data in table 1 was obtained using the methods described herein, and in particular, in Examples 1 and 2. The levels of various PAMs were assess from samples of human volunteers.

[2] = system: CPIa-IIa; experiment: as above; conditions: for CPIa-IIa (mean) log fluorescence intensity / CPIa-IIa (peak) log fluorescence intensity: PRP
Description: as §1

[3] = system: GP IIb/IIIa; experiment: Whole blood flow cytometry; conditions: for GP IIb/IIIa (mean) log fluorescence intensity / GP IIb/IIIa (peak) log fluorescence intensity: Whole Blood; for GPIIb/IIIa expression (FIG. 1), in words: sertraline 18.1, 44.7 or 85.3 ng/ml, NDMS 31.1, 64.1, 143.0 ng/ml; for GPIIb/IIIa expression (FIG. 7), in words: whole blood, post-coronary angioplasty patient, increasing concentrations
Description: For ex vivo assessment of the SSRIs effect on a PAM, a level of a PAM can be assessed by flow cytometry by first obtaining a sample that comprises platelets and then contacting the sample with a platelet activation agonist, such as phorbol myristate acetate (PMA), ADP (adenosine diphosphate), thrombin, collagen, and/or TRAP (thrombin receptor activating peptide), under conditions suitable for activation of platelets in the sample. The sample is in contact with the agonist preferably for a period of time effective to maximally activate the platelets. […] Then one contacts or stains the samples with a composition that comprises an anti-PAM antibody e.g., having a fluorescent label, preferably in an amount in excess of that required to bind the PAM expressed on the platelets, under conditions suitable for the formation of labeled complexes between the anti-PAM antibody and activated platelets. Then the formation of the complex in the sample is determined (detected or measured).
Four cc of blood was collected in a tube, containing 2 cc of acid-citrate-dextrose (ACD) (7.3 g citric acid, 22.0 g sodium citrate×2H2O and 24.5 glucose in a total amount of 1000 mL distilled water) and mixed well. The buffer, TBS (10 mM Tris, 0.15 M NaCl, pH 7.4) and the following fluorescein isothiocyanate (FITC) conjugated monoclonal antibodies (PharMingen, San Diego, Calif. USA, and DAKO, Calif., USA) were removed from a refrigerator and allowed to warm at room temperature (RT): CD41 (IIb/IIIa), CD31 (PECAM-1), CD62p (P-selectin), CD51/61 (Vitronectin receptor). Six amber tubes (1.25 ml) were obtained and marked. One Eppendorf tube (1.5 ml) was labeled with “Dill WB”, Patient ID #, Initial and Date. The amber tubes and Eppendorf tube were placed in the rack. […] of TBS buffer was pipetted to the labeled Eppendorf tube. The patient's whole blood tube was inverted gently twice to mix. 50 μl of whole blood was pipetted to the “Dill WB” labeled Eppendorf tube. The Eppendorf tube was capped and the diluted whole blood was mixed by inverting the Eppendorf tube gently two times 50 μl of diluted whole blood was pipetted to each amber tube. 5 μl of appropriate antibody was pipetted to the bottom of the corresponding amber tube. The tubes were covered with aluminum foil and incubated at 4° C. for 30 minutes. After incubation, 400 μl of 2% buffered paraformaldehyde was added. To prepare 2% Paraformaldehyde:Dilute 1 part 10% paraformaldehyde with 4 parts TBS. This solution was stored at 4° C. for up to one week. The amber tubes were closed with a lid tightly and stored in a refrigerator at 4° C. until the flow cytometric analysis. The samples are analyzed on a Becton Dickinson FACScan flow cytometer. The instrument is set up to measure forward light scatter (FSC), and FITC fluorescence. All parameters are collected using four decade logarithmic amplification.
The data in table 1 was obtained using the methods described herein, and in particular, in Examples 1 and 2. The levels of various PAMs were assess from samples of human volunteers. […] Baseline levels of the PAMs were also obtained (without exposure to sertraline or NDMS).

[4] = healthy volunteers, desmethylsertraline 31.1 ng/ml
[5] = healthy volunteers, desmethylsertraline 64.2 ng/ml
[6] = healthy volunteers, desmethylsertraline 143 ng/ml
[7] = post-angioplasty patient on aspirin, desmethylsertraline 31.1 ng/ml
[8] = post-angioplasty patient on aspirin, desmethylsertraline 64.2 ng/ml
[9] = post-angioplasty patient on aspirin, desmethylsertraline 143 ng/ml
[10] = whole blood from a healthy volunteer
[11] = healthy volunteers, sertraline 18.1 ng/ml
[12] = healthy volunteers, sertraline 44.7 ng/ml
[13] = healthy volunteers, sertraline 85.3 ng/ml
[14] = post-angioplasty patient on aspirin, sertraline 18.1 ng/ml
[15] = post-angioplasty patient on aspirin, sertraline 44.7 ng/ml
[16] = post-angioplasty patient on aspirin, sertraline 85.3 ng/ml
[17] = plasma concentration 85.3 ng/ml, equivalent to 200 mg/daily

## N[C@H]1CC[C@@H](c2ccc(Cl)c(Cl)c2)c2ccccc21 [Desmethyl sertraline, N-desmethylsertraline]
[1]; [4]
  GP IIb/IIIa (mean) log fluorescence intensity: 580
  GP IIb/IIIa (peak) log fluorescence intensity: 457
[1]; [5]
  GP IIb/IIIa (mean) log fluorescence intensity: 743
  GP IIb/IIIa (peak) log fluorescence intensity: 649
[1]; [6]
  GP IIb/IIIa (mean) log fluorescence intensity: 708
  GP IIb/IIIa (peak) log fluorescence intensity: 509
[1]; [7]
  GP IIb/IIIa (mean) log fluorescence intensity: 948
  GP IIb/IIIa (peak) log fluorescence intensity: 791
[1]; [8]
  GP IIb/IIIa (mean) log fluorescence intensity: 918
  GP IIb/IIIa (peak) log fluorescence intensity: 777
[1]; [9]
  GP IIb/IIIa (mean) log fluorescence intensity: 836
  GP IIb/IIIa (peak) log fluorescence intensity: 716
[2]; [4]
  CPIa-IIa (mean) log fluorescence intensity: 41
  CPIa-IIa (peak) log fluorescence intensity: 42
[2]; [6]
  CPIa-IIa (mean) log fluorescence intensity: 43
  CPIa-IIa (peak) log fluorescence intensity: 40
[2]; [7]
  CPIa-IIa (mean) log fluorescence intensity: 62
  CPIa-IIa (peak) log fluorescence intensity: 59
[2]; [8]
  CPIa-IIa (mean) log fluorescence intensity: 62
  CPIa-IIa (peak) log fluorescence intensity: 53
[2]; [9]
  CPIa-IIa (mean) log fluorescence intensity: 40
  CPIa-IIa (peak) log fluorescence intensity: 48
[3]; [4]
  GP IIb/IIIa (mean) log fluorescence intensity: 346
  GP IIb/IIIa (peak) log fluorescence intensity: 340
[3]; [5]
  GP IIb/IIIa (mean) log fluorescence intensity: 403
  GP IIb/IIIa (peak) log fluorescence intensity: 355
[3]; [6]
  GP IIb/IIIa (mean) log fluorescence intensity: 314
  GP IIb/IIIa (peak) log fluorescence intensity: 264
[3]; [7]
  GP IIb/IIIa (mean) log fluorescence intensity: 277
  GP IIb/IIIa (peak) log fluorescence intensity: 268
[3]; [8]
  GP IIb/IIIa (mean) log fluorescence intensity: 219
  GP IIb/IIIa (peak) log fluorescence intensity: 245
[3]; [9]
  GP IIb/IIIa (mean) log fluorescence intensity: 242
  GP IIb/IIIa (peak) log fluorescence intensity: 232
[3]; [10]
  GPIIb/IIIa expression, NDMS compared with sertraline (FIG. 1): more effectively decreased the expression of GPIIb/IIIa
  GPIIb/IIIa expression (FIG. 1), in words: dose dependent decrease in the expression
[3]
  GPIIb/IIIa expression (FIG. 7), in words: striking decreases in expression

## CN[C@H]1CC[C@@H](c2ccc(Cl)c(Cl)c2)c2ccccc21 [sertraline]
[1]; 44.7, 85.3 ng/mL of sertraline
  GP IIb/IIIa expression, flow cytometric graph (FIG. 9), in words: dose dependent decrease in the expression
[1]; [11]
  GP IIb/IIIa (mean) log fluorescence intensity: 1038
  GP IIb/IIIa (peak) log fluorescence intensity: 991
[1]; [12]
  GP IIb/IIIa (mean) log fluorescence intensity: 748
  GP IIb/IIIa (peak) log fluorescence intensity: 518
[1]; [13]
  GP IIb/IIIa (mean) log fluorescence intensity: 533
  GP IIb/IIIa (peak) log fluorescence intensity: 421
[1]; [14]
  GP IIb/IIIa (mean) log fluorescence intensity: 911
  GP IIb/IIIa (peak) log fluorescence intensity: 679
[1]; [15]
  GP IIb/IIIa (mean) log fluorescence intensity: 962
  GP IIb/IIIa (peak) log fluorescence intensity: 798
[1]; [16]
  GP IIb/IIIa (mean) log fluorescence intensity: 1035
  GP IIb/IIIa (peak) log fluorescence intensity: 922
[1]; [17]
  surface expression of glycoprotein IIb/IIIa complex (GP IIb/IIIa), in words: diminished surface expression
[2]; [11]
  CPIa-IIa (mean) log fluorescence intensity: 51
  CPIa-IIa (peak) log fluorescence intensity: 47
[2]; [12]
  CPIa-IIa (mean) log fluorescence intensity: 49
  CPIa-IIa (peak) log fluorescence intensity: 37
[2]; [13]
  CPIa-IIa (mean) log fluorescence intensity: 35
  CPIa-IIa (peak) log fluorescence intensity: 30
[2]; [14]
  CPIa-IIa (mean) log fluorescence intensity: 63
  CPIa-IIa (peak) log fluorescence intensity: 55
[2]; [15]
  CPIa-IIa (mean) log fluorescence intensity: 70
  CPIa-IIa (peak) log fluorescence intensity: 60
[2]; [16]
  CPIa-IIa (mean) log fluorescence intensity: 67
  CPIa-IIa (peak) log fluorescence intensity: 60
[2]; [17]
  surface expression of very late antigen-2 (VLA-2, or GPIb-IIa), in words: diminished surface expression
[3]; [11]
  GP IIb/IIIa (mean) log fluorescence intensity: 479
  GP IIb/IIIa (peak) log fluorescence intensity: 418
[3]; [12]
  GP IIb/IIIa (mean) log fluorescence intensity: 476
  GP IIb/IIIa (peak) log fluorescence intensity: 437
[3]; [13]
  GP IIb/IIIa (mean) log fluorescence intensity: 498
  GP IIb/IIIa (peak) log fluorescence intensity: 437
[3]; [14]
  GP IIb/IIIa (mean) log fluorescence intensity: 252
  GP IIb/IIIa (peak) log fluorescence intensity: 266
[3]; [15]
  GP IIb/IIIa (mean) log fluorescence intensity: 230
  GP IIb/IIIa (peak) log fluorescence intensity: 244
[3]; [16]
  GP IIb/IIIa (mean) log fluorescence intensity: 198
  GP IIb/IIIa (peak) log fluorescence intensity: 217
[3]; [10]
  GPIIb/IIIa expression (FIG. 1), in words: dose dependent decrease in the expression
[3]
  GPIIb/IIIa expression (FIG. 7), in words: striking decreases in expression

Reference: patent publication US6552014B2, “Methods of inhibiting platelet activation with selective serotonin reuptake inhibitors” (HeartDrug Research, L.L.C., priority 1999, dated 2003)
